Reference: PMC2839369 (Chimia, 2009)

Target: thymidine kinase from Thermotoga maritima (TmTK) (Thermotoga maritima, UniProt Q9WYN2)
Assay: crystal structures and activity
Format: binding
Conditions: phosphoryl donor site

Sequence of thymidine kinase from Thermotoga maritima (TmTK) (Q9WYN2 whole entry): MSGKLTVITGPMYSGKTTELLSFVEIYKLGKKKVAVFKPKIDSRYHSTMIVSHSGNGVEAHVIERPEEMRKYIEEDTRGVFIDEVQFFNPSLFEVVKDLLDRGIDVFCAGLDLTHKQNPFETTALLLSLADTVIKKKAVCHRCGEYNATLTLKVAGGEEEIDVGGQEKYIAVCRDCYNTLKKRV

**Q.** How did the “crystal structures and activity (summary of authors' earlier work)” value turn out when `Nc1ncnc2c1ncn2[C@@H]1O[C@H](COP(=O)(O)OP(=O)(O)OP(=O)(O)O)[C@@H](O)[C@H]1O` [ATP] was run?
**A.** large conformational change in the native homotetramer associated with ATP binding
